Here are results for one compound from EPA's ToxValDB 9.5 (doi:10.2903/j.efsa.2007.110r).

One data set concerns Canidae. Conditions: subchronic; duration: 90 days; oral; Dog Other; organ weight.
Another data set relates to Daphnia magna. Conditions: chronic/long-term; duration: 21 days; reproduction.
For the next data set, the system named is Colinus virginianus. Conditions: acute; oral; diet; mortality.
A further data set deals with Oncorhynchus mykiss. Conditions: acute; duration: 96 hours; mortality.
The subject of a further data set is Apis mellifera. Conditions: acute; duration: 48 hours; oral; unspecified; mortality.
In a further data set the test system is Pimephales promelas. Conditions: chronic/long-term; duration: 28 days; growth.

SMILES strings stand for the structures. Converted amounts (≈) assume the structure as drawn.

Consider `N#Cc1c[nH]cc1-c1cccc2c1OC(F)(F)O2` [Fludioxonil], for which the LD50 was more than 5000 mg/kg in the data set with Rattus norvegicus (acute, oral, mortality); not below 2000 mg/kg with Bird (acute, oral, unspecified, mortality); more than 100 µg/piece with Apis mellifera. For the same compound, the NOAEL in the data set on Rattus norvegicus (chronic, duration: 2 years, oral, diet, organ weight) is 37 mg/kg-day; in the data set on Rattus norvegicus (reproduction developmental, reproduction), 212 mg/kg-day; with Canidae it was 58.5 mg/kg-day. Further, the NOEC in the data set with Daphnia magna came out at 0.005 mg/L; in the data set on Bird (reproductive), 11.1 mg/kg-day; in the data set with Tagia sp. (chronic/long-term) it was 20 mg/kg; with Pimephales promelas it was 0.039 mg/L. Also, the LC50 in the data set with Colinus virginianus is more than 833 mg/kg-day; with Tagia sp. (acute, mortality), more than 1000 mg/kg; in the data set on Oncorhynchus mykiss, 0.23 µg/mL (≈ 0.927 µM).

In general, NOAEL refers to the highest dose or exposure tested at which no adverse effect was seen.
